# Measurements as given in the NIST ThermoML archive (doi:10.1016/j.fluid.2015.09.031).
# Numbers after ± are expanded uncertainties.
# Conditions: Liquid, Ebulliometric method (Recirculating still)
Compound,vapor or sublimation pressure (288.15 K) [kPa],vapor or sublimation pressure (298.15 K) [kPa],vapor or sublimation pressure (308.15 K) [kPa]
CC(C)CCl [1-chloro-2-methylpropane],13 ± 0.1,20.35 ± 0.1,30.45 ± 0.11
CCCCCl [1-chlorobutane],8.4 ± 0.1,13.52 ± 0.1,21.04 ± 0.1
CCC(C)Cl (stereo not given) [2-chlorobutane],13.36 ± 0.1,20.91 ± 0.1,31.55 ± 0.11

# Second part, the molecule after the results:
vapor or sublimation pressure (288.15 K) [kPa],vapor or sublimation pressure (298.15 K) [kPa],vapor or sublimation pressure (308.15 K) [kPa],Compound
26.42 ± 0.11,40.13 ± 0.11,59.52 ± 0.12,CC(C)(C)Cl [2-chloro-2-methylpropane]
3.63 ± 0.1,6.095 ± 0.1,9.865 ± 0.1,CCCCCCC [heptane]
